Patent US6440437B1, “Wet wipes having skin health benefits” (Kimberly-Clark Worldwide, Inc., priority 2000, dated 2002)

Tested on: EpiDerm™ skin model (Epi-200)
Assay: EpiDerm skin model: barrier against trypsin and IL-1α pro-inflammatory response
Assay type: cell-based, human
Details: 15 microliters formulation 30 min before 10 microliters of 200 μg/ml trypsin; media assayed by ELISA after 6 hours
Experimental: The EpiDerm™ skin model (Epi-200, Mattek Corporation, Ashland, Mass.) was used to assess the ability of the lipid-enriched wet wipe formulations to enhance skin barrier against permeation of trypsin (a skin irritating, fecal enzyme) and prevent a Interleukin-1α (IL-1α) response which is a measure of inflammation.
Test formulations (15 microliters) were added to the surface of the EpiDerm™ skin model and incubated for 30 minutes at 37° C., 5% CO2 prior to dosing with the fecal enzyme, trypsin. The study was conducted using Epi-200 assay media devoid of hydrocortisone and pH indicator that was prepared by the manufacturer. After 30 minutes, the underlying media was removed and replaced with fresh, pre-warmed media followed by application of 10 microliters of 200 μg/ml of trypsin. The skin wells were incubated for 6 hours before the underlying media was removed and stored for further analysis. […] Also, the amount of IL-1α in the media was measured using commercially available ELISA kits (Quantikine™ Human IL-1α Immunoassay, R&D Systems, Minneapolis, Minn.) specific for IL-1α to assess the ability of the formulations to prevent a pro-inflammatory response by the enzyme compared to the no treatment control.

trypsin
Irritation: Pro-inflammatory Response (IL-1α), Average IL-1α: 108.7
